Measured values published in ChEMBL document CHEMBL1201862, “PubChem BioAssay data set” (2004).
Calls of active or inactive are those of the source.

Tests used:
[1] = biological target: Tyrosyl-DNA phosphodiesterase 2 (Homo sapiens, UniProt O95551); assay: potency against TDP2 phosphodiesterase activity – biochemical, epi absorbance, IC50, dose response (AID 743297)
[2] = viability loss in HepG2 hepatoma cells – cell-based, cherry-picks, set 5, cytotoxicity control, dose response (AID 1053118); type: functional
[3] = biological target: Protein Wnt-3a (Mus musculus, UniProt P27467); assay: SAR analysis of small molecule antagonists of Gli-SUFU in a Wnt3a luminescent reporter assay.; type: functional
[4] = biological target: Protein disulfide-isomerase A6 (Homo sapiens, UniProt Q15084); assay: Secondary Assay for Selectivity of PDI Inhibitors (against ERp5) Measured in Biochemical System Using Plate Reader - 2137-04_Inhibitor_Dose_DryPowder_Activity_Set3.
[5] = system: P388; assay: cells; type: functional; conditions: Mus musculus
[6] = biological target: T1, Nuclear receptor subfamily 0 group B member 1 (Homo sapiens, UniProt P51843); type: functional, cell-based;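 note: HEK293T cells transfected with SF-1 and DAX-1 plus StAR promoter luciferase reporter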
T1 sequence (P51843 whole entry): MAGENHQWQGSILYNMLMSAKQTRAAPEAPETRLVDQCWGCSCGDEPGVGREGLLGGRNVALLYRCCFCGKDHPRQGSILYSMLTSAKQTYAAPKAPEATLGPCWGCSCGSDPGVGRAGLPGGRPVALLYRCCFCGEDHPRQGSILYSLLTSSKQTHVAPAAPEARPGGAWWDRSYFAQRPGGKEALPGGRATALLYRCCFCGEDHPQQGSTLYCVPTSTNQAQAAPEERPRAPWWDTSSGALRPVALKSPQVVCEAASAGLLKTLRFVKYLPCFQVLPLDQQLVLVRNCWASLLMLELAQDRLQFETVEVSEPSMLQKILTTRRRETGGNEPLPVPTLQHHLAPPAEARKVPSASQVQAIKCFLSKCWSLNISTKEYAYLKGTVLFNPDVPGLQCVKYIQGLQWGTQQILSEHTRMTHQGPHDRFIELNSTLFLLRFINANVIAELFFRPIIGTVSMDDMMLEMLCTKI

[7] = Counterscreen for activators of the function of SWI/SNF related, matrix associated, actin dependent regulator of chromatin, subfamily a, member 2 (SMARCA2, BRM): Luminescence-based cell-based high throughput dose response assay to identify non-selective compounds using the VP16 reporter assay.; type: functional
[8] = biological target: SWI/SNF-related matrix-associated actin-dependent regulator of chromatin subfamily A member 2 (Homo sapiens, UniProt P51531); assay: Luminescence-based cell-based high throughput dose response assay to identify activators of the function of SWI/SNF related, matrix associated, actin dependent regulator of chromatin, subfamily a, member 2 (SMARCA2, BRM).; type: functional
[9] = system: P388/ADR; assay: cells; type: functional; conditions: Mus musculus
[10] = system: SN12K1; assay: cells; type: functional; conditions: Homo sapiens
[11] = cells; type: functional, cell-based
[12] = biological target: T2, Insulin-degrading enzyme (Homo sapiens, UniProt P14735); assay: recombinant IDE activation, cell-free – biochemical, fluorescence polarization, counter-screen for IDE activator project, dose response (AID 588681)
T2 sequence (P14735 whole entry): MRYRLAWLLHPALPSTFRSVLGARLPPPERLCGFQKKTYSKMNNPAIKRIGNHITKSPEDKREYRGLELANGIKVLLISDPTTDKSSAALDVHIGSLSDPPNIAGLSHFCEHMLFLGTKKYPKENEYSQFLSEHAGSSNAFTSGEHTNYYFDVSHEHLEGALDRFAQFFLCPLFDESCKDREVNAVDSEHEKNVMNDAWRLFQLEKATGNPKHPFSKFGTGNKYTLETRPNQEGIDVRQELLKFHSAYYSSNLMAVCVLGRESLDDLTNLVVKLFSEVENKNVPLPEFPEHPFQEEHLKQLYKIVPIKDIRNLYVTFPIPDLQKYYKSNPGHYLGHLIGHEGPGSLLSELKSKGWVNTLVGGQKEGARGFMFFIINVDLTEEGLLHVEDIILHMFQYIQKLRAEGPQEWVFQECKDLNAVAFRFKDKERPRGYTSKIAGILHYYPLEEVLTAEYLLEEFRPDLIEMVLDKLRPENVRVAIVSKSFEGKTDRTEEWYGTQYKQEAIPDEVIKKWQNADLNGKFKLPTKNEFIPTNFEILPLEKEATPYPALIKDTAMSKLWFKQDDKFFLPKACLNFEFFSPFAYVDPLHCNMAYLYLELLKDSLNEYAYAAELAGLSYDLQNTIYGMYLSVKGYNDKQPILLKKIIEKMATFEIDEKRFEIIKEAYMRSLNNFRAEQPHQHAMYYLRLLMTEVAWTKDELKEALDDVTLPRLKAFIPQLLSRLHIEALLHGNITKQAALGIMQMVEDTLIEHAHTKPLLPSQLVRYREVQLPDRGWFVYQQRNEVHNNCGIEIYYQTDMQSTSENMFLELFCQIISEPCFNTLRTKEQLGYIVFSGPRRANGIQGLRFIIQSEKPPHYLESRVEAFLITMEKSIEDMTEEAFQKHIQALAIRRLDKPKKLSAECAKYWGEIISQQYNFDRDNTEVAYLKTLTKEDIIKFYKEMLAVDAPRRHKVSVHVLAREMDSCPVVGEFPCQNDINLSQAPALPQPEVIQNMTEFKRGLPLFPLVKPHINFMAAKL

[13] = biological target: Beta-lactamase (Pseudomonas aeruginosa, UniProt Q79MP6);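 note: biochemical dose-response test of metallo-beta-lactamase enzyme inhibition, read out by epi-absorbance; purified recombinant IMP-1 metallo-beta-lactamase with nitrocefin as substrate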
[14] = biological target: Beta-lactamase (Salmonella choleraesuis (strain SC-B67), UniProt Q5J463)
[15] = system: HEK293; assay: optical interference in Abeta FP readout, dose response, artefact control for IDE activator project, biochemical, fluorescence polarization (AID 588442); type: functional, cell-based; conditions: Homo sapiens
[16] = biological target: T3, ORF 73 (Human herpesvirus 8, UniProt O40947); assay: KSHV LANA DNA-binding disruption – biochemical, fluorescence polarization, cherry-picked samples, dose response (AID 504725); set-up: species or system Human gammaherpesvirus 8;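 note: fluorescence polarization of a labeled DNA duplex reporting LANA DNA binding; potency is for inhibitors that block LANA binding to the DNA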
T3 sequence (O40947 whole entry): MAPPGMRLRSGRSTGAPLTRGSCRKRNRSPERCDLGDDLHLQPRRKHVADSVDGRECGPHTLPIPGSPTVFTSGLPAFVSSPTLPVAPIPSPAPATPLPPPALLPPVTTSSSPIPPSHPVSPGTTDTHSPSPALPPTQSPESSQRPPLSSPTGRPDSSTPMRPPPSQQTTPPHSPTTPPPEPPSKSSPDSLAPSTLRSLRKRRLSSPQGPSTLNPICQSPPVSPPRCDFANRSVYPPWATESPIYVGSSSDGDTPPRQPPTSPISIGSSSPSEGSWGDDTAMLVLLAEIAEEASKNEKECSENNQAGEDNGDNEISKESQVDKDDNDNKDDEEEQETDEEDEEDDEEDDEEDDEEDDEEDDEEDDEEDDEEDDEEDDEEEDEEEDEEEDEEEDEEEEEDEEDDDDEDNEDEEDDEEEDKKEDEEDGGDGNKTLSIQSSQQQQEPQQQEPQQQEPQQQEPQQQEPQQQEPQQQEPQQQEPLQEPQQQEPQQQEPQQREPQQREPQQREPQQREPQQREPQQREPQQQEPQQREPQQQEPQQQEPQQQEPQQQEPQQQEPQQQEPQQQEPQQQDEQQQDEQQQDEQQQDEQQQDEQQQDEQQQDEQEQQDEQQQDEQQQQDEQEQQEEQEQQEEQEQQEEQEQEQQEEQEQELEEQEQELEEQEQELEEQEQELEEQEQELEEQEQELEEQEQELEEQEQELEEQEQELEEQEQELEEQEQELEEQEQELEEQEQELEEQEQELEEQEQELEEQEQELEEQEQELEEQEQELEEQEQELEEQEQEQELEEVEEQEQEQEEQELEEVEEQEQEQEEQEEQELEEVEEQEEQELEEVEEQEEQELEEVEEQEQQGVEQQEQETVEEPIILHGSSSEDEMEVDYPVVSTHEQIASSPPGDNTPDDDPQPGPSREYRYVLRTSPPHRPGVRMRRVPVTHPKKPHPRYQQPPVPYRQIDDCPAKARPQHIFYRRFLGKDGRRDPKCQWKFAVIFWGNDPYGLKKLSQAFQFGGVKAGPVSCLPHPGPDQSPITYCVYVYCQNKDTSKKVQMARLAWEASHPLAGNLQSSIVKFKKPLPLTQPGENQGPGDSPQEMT

[17] = biological target: T2, Insulin-degrading enzyme; assay: cellular IDE activation of Abeta substrate cleavage – fluorescence polarization, HEK cells, dose response (AID 588439); type: functional, cell-based
[18] = system: HEK293; assay: membrane integrity loss in HEK cells – cell-based, fluorescence, cytotoxicity control for IDE activator project, dose response (AID 588440); type: functional; conditions: Homo sapiens;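 note: cytotoxicity by LDH release measuring loss of membrane integrity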

Sequence of Protein Wnt-3a (P27467 whole entry): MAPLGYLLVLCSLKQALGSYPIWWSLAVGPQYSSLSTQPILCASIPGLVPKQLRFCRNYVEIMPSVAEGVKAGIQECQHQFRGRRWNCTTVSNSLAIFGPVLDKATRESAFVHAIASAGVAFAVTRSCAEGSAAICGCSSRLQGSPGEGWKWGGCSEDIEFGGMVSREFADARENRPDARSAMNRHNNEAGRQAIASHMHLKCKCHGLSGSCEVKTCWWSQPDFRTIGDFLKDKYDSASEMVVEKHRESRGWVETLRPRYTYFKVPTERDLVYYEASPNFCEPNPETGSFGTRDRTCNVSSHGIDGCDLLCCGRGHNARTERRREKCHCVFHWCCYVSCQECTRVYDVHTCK
Sequence of Beta-lactamase (Salmonella choleraesuis (strain SC-B67), UniProt Q5J463) (Q5J463 whole entry): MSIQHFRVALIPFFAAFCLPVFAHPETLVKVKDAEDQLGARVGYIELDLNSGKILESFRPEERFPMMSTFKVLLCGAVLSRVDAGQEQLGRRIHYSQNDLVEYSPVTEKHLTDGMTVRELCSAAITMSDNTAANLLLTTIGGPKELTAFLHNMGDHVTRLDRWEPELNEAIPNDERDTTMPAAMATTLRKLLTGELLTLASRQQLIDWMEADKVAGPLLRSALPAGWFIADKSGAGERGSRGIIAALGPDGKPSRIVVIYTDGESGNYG
Sequence of Protein disulfide-isomerase A6 (Q15084 whole entry): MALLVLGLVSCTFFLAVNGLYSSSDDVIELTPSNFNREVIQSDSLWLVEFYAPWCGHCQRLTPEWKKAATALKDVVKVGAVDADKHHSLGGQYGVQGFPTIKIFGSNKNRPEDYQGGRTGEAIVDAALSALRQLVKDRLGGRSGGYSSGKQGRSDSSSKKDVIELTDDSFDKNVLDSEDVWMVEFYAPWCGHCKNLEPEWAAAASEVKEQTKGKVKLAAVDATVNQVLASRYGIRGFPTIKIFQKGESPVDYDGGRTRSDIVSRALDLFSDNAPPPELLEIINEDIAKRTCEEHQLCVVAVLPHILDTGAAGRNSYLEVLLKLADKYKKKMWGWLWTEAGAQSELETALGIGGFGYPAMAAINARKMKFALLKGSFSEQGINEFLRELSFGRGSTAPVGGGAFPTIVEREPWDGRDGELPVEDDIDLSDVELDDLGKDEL
Sequence of Beta-lactamase (Pseudomonas aeruginosa, UniProt Q79MP6) (Q79MP6 whole entry): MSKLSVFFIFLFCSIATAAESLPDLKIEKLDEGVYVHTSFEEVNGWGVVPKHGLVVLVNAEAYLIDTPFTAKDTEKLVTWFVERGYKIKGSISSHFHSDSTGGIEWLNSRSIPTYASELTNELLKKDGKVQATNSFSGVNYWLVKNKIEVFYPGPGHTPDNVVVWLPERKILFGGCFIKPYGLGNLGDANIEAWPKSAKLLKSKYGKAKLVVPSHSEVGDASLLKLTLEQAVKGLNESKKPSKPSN
Sequence of Tyrosyl-DNA phosphodiesterase 2 (O95551 whole entry): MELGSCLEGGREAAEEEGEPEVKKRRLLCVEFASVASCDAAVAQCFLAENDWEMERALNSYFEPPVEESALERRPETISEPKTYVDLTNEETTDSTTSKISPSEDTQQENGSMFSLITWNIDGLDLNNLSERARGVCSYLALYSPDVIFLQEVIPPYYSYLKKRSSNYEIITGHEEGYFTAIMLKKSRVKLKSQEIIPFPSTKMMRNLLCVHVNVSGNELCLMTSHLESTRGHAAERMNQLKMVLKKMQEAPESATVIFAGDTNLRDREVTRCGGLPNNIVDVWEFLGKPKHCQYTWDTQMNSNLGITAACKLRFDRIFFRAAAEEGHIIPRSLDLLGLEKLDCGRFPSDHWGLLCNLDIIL
Sequence of SWI/SNF-related matrix-associated actin-dependent regulator of chromatin subfamily A member 2 (P51531 whole entry): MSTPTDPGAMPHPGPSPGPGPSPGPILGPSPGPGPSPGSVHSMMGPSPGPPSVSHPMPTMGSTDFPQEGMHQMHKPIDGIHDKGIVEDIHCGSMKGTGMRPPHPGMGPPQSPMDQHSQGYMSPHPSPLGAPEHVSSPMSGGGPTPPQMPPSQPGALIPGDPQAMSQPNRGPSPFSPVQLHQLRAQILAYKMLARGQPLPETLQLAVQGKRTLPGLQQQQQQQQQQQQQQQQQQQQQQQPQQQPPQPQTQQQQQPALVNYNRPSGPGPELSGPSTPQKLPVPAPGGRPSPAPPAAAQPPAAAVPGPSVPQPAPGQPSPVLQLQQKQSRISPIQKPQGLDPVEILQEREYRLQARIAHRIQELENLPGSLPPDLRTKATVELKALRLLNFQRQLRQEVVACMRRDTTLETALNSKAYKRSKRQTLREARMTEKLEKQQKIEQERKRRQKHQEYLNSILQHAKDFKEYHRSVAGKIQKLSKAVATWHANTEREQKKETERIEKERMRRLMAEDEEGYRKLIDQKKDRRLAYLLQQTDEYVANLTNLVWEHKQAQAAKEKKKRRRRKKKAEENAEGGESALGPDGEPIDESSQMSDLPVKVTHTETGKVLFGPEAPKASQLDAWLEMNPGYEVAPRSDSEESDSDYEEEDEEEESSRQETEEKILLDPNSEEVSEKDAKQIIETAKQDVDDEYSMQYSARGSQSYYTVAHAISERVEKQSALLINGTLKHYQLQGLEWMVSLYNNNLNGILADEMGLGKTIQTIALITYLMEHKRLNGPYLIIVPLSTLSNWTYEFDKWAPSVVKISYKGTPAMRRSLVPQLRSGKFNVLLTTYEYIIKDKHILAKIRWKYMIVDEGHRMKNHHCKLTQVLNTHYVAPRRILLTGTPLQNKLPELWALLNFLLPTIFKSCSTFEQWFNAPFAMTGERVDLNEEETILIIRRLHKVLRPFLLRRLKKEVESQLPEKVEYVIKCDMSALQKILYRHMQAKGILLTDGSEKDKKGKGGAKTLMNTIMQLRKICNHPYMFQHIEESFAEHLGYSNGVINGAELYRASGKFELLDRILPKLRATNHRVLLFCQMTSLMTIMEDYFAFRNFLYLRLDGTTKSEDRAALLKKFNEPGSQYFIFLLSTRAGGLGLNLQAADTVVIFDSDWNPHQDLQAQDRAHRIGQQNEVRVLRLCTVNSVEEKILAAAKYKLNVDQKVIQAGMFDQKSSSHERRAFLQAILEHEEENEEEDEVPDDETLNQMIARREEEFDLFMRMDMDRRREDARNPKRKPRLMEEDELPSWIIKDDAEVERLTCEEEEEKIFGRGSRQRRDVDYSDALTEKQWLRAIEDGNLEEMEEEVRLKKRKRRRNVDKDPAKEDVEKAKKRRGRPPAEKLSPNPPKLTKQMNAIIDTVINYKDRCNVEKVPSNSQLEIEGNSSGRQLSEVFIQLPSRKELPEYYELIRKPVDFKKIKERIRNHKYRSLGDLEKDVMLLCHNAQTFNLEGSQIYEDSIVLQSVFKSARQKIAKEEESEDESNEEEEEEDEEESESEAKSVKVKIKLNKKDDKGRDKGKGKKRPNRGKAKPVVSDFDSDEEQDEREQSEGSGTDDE

With `COc1ccc(-n2[nH]c(C)cc2=O)cc1` the IC50 [1] was > 128 µM (inactive).

In the case of `COCC(=O)Nc1ccc2c(c1)C(=O)N(C)[C@@H]1CC[C@H](CC(=O)NCc3ccccc3Cl)O[C@H]1CO2`, the AC50 [2] is reported as > 52 µM (inactive).

In the case of `CCCCN(C)c1cc(NC(=O)c2ccccc2)ncn1`, the IC50 [3] is reported as > 21.8 µM (inactive).

With `C/C1=C\[C@@H](O)C(C)(C)CCCC2(C)OC2C[C@@H]1OC(=O)c1ccc(O)cc1` (stereo partly drawn) the AC50 [4] was 5 µM (active).

With `Nc1ccc(S(=O)(=O)Nc2cnc3c(Cl)cccc3n2)cc1` [CHLORSULFAQUINOXALINE] the GI50 [5] was 87.1 µM (inactive), the IC50 [6] was > 67.5 µM (inactive) and the EC50 [7] was > 91.2 µM (inactive). For the same compound, the EC50 [8] was > 91.2 µM (inactive), the GI50 [9] was 128 µM (inactive) and the GI50 [10] was 117 µM (inactive). For the same compound, the IC50 [11] was > 67.5 µM (inactive).

In the case of `CC(=O)Oc1ccc2c(c1)Oc1cc(OC(C)=O)ccc1C21OC(=O)c2ccccc21` [FLUORESCEIN DIACETATE], the EC50 [12] is reported as > 54.7 µM (inactive), the IC50 [13] is reported as > 59.6 µM (inactive) and the IC50 [14] is reported as > 59.6 µM (inactive). For the same compound, the EC50 [15] was > 54.7 µM (inactive), the AC50 [16] was 0.042 µM (active) and the EC50 [17] was > 54.7 µM (inactive). The IC50 [18] was > 89.2 µM (inactive).
